Reference: ChEMBL document CHEMBL1201862, “PubChem BioAssay data set” (2004)
Activity calls are given as the source filed them.

Experiments:
[1] = biological target: T1, Neuropeptide Y receptor type 2 (Homo sapiens, UniProt P49146); assay: Fluorescence counterscreen for potentiators or agonists of NPY-Y1: Cell-based high-throughput dose response assay for potentiators or agonists of NPY-Y2.; format: functional
T1 sequence (P49146 whole entry): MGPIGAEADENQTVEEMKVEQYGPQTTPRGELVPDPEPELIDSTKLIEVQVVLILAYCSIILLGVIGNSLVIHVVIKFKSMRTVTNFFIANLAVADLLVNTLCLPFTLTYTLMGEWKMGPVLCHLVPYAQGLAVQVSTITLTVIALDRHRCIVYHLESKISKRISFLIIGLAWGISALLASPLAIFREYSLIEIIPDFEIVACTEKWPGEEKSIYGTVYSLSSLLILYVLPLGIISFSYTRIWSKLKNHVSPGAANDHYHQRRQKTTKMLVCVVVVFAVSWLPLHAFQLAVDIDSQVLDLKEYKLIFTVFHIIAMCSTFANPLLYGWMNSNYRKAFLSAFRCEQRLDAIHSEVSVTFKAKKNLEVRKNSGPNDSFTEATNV

[2] = biological target: T1, Neuropeptide Y receptor type 2; assay: Fluorescence-based counterscreen for agonists of NPY-Y1: cell-based high-throughput dose response assay for agonists of NPY-Y2.; format: functional
HEK293 = assay: Fluorescence-based counterscreen for potentiators or agonists of NPY-Y1: cell-based high-throughput dose response assay for inhibitors of cyclic nucleotide gated ion channel (CNGC) activity. In this assay, the parental HEK293 cell line transfected with a cyclic-nucleotide gated ion channel (CNGC)-based cAMP sensor is used to measure inhibition of isoproterenol-induced CNGC …; format: functional; details: Homo sapiens
[3] = biological target: T2, Neuropeptide Y receptor type 1 (Homo sapiens, UniProt P25929); assay: Fluorescence-based dose response cell-based high-throughput screening assay for potentiators or agonists of NPY-Y1.; format: functional
T2 sequence (P25929 whole entry): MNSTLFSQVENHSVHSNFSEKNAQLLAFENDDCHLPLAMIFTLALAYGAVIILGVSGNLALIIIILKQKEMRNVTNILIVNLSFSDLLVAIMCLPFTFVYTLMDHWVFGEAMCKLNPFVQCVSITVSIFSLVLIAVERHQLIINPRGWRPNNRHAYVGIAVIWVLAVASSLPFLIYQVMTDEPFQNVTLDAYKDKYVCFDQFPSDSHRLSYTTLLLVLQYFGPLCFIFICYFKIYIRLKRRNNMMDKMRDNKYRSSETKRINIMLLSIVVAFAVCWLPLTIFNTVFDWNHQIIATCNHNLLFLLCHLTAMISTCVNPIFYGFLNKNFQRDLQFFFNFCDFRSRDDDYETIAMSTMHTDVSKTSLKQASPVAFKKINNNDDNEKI

[4] = biological target: T2, Neuropeptide Y receptor type 1; assay: Fluorescence-based dose response cell-based high-throughput screening assay for agonists of NPY-Y1. [Related pubchem assays: 1697 (Screening assay (NPY-Y1 agonists).), 1359 (Screening assay (NPY-Y2 potentiators or agonists).), 1304 (Screening assay (NPY-Y1 potentiators or agonists).), 1704 (Screening assay (CNGC inhibitors).), 1791 (Summary AID.)]; format: functional
[5] = biological target: T3, Rac GTPase-activating protein 1 (Homo sapiens, UniProt Q9H0H5); assay: blockers of MgcRacGAP-driven Rac1 GTP hydrolysis – biochemical, ADP Hunter fluorescence, primary and confirmatory, confirmation (AID 624330); format: functional
T3 sequence (Q9H0H5 whole entry): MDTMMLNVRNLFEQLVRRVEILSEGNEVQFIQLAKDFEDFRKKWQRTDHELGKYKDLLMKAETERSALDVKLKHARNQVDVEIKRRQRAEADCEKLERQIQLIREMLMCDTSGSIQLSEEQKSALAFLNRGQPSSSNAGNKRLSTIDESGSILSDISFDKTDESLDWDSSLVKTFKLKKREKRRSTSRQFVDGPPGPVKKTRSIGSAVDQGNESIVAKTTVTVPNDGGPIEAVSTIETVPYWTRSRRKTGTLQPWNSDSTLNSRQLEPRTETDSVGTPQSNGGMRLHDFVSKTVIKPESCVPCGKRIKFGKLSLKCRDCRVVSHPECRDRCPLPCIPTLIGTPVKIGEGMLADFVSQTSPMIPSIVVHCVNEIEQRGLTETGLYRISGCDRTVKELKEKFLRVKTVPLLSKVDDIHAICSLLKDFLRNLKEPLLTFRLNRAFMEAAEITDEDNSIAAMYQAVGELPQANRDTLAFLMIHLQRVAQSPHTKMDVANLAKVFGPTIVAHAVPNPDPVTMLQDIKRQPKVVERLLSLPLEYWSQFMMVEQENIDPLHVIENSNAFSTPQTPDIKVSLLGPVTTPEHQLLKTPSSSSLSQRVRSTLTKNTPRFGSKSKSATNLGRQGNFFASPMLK

Staphylococcus aureus = assay: Inhibitors of Bacterial Quorum Sensing Structure Activity Relationship (SAR) Analysis: Dose Response Assay. [Related pubchem assays: 700, 527 ]; format: functional, organism-based
[6] = biological target: T4, RNA-binding protein pos-1 (Caenorhabditis elegans, UniProt G5EF15); assay: disruptors of C. elegans POS-1 RNA interaction – biochemical, fluorescence polarization, dose response (AID 1964);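 further: purified POS-1 fused to maltose binding protein made in E. coli; potency of compounds blocking POS-1 binding to fluorescent RNA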
T4 sequence (G5EF15 whole entry): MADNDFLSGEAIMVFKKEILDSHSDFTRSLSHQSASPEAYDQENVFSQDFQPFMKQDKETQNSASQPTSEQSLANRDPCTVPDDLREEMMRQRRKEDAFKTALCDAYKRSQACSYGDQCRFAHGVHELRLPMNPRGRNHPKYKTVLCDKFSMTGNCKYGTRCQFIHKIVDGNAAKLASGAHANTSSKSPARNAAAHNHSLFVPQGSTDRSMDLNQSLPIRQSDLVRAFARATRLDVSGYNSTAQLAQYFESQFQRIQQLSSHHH

[7] = biological target: T5, Zinc finger protein mex-5 (Caenorhabditis elegans, UniProt Q9XUB2); assay: potency of MEX-5 RNA-binding blockers – biochemical, C. elegans, fluorescence polarization, dose response (AID 1960)
T5 sequence (Q9XUB2 whole entry): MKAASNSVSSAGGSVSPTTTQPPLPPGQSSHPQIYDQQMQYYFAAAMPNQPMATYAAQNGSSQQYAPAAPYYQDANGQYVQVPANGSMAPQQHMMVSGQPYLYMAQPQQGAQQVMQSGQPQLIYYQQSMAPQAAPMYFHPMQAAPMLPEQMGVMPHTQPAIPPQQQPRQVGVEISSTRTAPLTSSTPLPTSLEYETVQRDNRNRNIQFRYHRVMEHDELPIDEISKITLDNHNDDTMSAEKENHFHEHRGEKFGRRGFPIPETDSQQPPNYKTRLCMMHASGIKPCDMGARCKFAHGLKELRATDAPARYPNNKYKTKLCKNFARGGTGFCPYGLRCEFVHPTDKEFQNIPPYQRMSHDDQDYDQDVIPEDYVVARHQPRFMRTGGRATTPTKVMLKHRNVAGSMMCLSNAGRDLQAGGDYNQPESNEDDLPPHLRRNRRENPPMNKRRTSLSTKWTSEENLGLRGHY

NS3 = NS3 (Hepatitis C virus, UniProt A3EZJ3); assay: PubChem AID 2173; set-up: species or system Hepacivirus hominis
[8] = THP-1 cell cytotoxicity, dose response, cytotoxicity control for non-replicating M. tuberculosis project (AID 489025); format: functional
[9] = biological target: T6, Heat shock factor protein 1 (Mus musculus, UniProt P38532); assay: enhancement of HSF1-driven luciferase signal – cell-based, NIH3T3, luminescence, dose retest, confirmation (AID 435004); format: functional;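 further: stress induced by proteasome inhibitor MG132 added 30 min after compound; luciferase reporter driven by HSF1 response element in NIH3T3 cells; actives raise luminescence as potentiators of the MG132 stress response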
T6 sequence (P38532 whole entry): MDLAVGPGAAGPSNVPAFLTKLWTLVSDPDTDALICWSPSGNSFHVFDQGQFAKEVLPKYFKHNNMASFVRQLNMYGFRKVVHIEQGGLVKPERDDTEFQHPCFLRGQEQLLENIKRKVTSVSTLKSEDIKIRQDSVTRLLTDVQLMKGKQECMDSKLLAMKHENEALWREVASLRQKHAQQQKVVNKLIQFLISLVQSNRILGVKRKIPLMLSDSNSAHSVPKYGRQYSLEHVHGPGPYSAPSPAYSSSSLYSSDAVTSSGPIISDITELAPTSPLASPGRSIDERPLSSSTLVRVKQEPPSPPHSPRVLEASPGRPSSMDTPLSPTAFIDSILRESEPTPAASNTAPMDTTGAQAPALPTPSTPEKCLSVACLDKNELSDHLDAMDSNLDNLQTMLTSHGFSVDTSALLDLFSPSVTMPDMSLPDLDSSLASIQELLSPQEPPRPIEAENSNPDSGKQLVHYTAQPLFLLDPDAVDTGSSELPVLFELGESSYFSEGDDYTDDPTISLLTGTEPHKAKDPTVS

cells = format: functional
Vero = assay: cells; format: functional; details: Chlorocebus sabaeus
[10] = biological target: T7, Eukaryotic translation initiation factor 4H (Homo sapiens, UniProt Q15056); assay: eIF4H binding inhibition – biochemical, uHTS, fluorescence polarization, translation initiation inhibitor project, primary screen (AID 2012)
[11] = biological target: T8, Polyadenylate-binding protein 1 (Homo sapiens, UniProt P11940); assay: blockers of PABP interaction with poly(A) – biochemical, fluorescence polarization, […] (AID 2014)
[12] = biological target: T7, Eukaryotic translation initiation factor 4H; assay: inhibitors of translation initiation factor eIF4H – SAR follow-up (AID 435011); format: functional
[13] = biological target: DNA dC->dU-editing enzyme APOBEC-3A (Homo sapiens, UniProt P31941); assay: Dose Response confirmation of small molecule APOBEC3A DNA Deaminase Inhibitors via a fluorescence-based single-stranded DNA deaminase assay. [Related pubchem assays (depositor defined):AID493011, AID493024]; format: functional
[14] = biological target: T8, Polyadenylate-binding protein 1; assay: PABP inhibition in translation initiation, SAR follow-up (AID 435018); format: functional
[15] = biological target: DNA dC->dU-editing enzyme APOBEC-3G (Homo sapiens, UniProt Q9HC16); format: functional;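 further: Dose-response counterscreen measuring inhibition of APOBEC3G DNA deaminase activity, run while confirming APOBEC3A inhibitors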
Sequence of DNA dC->dU-editing enzyme APOBEC-3G (Q9HC16 whole entry): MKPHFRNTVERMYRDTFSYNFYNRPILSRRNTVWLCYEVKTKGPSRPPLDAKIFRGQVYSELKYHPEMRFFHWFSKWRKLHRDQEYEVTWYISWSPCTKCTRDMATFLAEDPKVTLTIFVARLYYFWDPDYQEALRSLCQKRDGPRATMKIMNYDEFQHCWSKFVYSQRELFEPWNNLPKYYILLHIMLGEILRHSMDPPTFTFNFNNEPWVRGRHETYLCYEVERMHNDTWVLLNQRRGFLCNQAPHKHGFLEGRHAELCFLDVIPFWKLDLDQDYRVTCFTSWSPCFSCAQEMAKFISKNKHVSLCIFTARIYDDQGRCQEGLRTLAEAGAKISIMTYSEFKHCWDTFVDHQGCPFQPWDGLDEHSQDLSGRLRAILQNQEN

T8 sequence (P11940 whole entry): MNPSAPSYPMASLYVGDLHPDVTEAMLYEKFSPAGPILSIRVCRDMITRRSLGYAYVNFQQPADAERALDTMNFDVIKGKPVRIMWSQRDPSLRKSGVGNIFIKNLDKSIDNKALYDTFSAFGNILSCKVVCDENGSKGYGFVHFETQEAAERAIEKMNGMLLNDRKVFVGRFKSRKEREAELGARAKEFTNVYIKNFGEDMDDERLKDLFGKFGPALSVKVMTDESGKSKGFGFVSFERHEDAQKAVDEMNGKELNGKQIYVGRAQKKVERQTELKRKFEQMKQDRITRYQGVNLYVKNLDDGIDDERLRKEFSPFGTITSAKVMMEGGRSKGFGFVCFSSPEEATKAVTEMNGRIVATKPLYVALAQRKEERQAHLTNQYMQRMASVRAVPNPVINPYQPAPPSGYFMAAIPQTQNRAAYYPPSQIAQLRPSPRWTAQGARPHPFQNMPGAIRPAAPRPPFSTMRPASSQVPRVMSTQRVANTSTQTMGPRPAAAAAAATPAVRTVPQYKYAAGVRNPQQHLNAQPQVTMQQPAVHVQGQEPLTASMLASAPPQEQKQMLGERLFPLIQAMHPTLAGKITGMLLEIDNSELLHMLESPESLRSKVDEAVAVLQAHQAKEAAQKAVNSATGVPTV
Sequence of DNA dC->dU-editing enzyme APOBEC-3A (P31941 whole entry): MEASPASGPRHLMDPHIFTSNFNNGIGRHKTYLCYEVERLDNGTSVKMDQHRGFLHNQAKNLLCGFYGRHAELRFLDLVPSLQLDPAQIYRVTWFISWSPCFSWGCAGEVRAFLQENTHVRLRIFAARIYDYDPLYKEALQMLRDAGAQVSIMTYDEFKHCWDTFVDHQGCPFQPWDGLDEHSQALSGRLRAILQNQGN
Sequence of NS3 (A3EZJ3 whole entry): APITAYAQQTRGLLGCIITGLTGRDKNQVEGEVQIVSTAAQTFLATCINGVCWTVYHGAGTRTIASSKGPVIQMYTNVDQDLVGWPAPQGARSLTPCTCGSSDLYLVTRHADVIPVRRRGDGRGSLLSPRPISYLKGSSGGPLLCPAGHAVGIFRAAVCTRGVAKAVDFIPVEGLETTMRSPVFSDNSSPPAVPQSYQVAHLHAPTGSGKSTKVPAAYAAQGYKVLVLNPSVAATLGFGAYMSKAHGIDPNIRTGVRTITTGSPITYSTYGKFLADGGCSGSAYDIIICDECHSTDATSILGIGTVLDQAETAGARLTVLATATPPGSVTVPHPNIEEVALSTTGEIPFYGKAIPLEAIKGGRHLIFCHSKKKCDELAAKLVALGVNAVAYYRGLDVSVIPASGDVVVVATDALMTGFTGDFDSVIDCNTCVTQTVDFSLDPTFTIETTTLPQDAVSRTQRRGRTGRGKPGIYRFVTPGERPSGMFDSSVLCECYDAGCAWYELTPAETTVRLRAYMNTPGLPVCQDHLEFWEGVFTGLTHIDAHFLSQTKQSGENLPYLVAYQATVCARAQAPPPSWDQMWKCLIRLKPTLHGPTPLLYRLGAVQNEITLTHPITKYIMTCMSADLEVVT

With CCOC(=O)C(Cc1ccccc1)C(=O)Nc1ccc(N(CC)CC)cc1 (stereo not given) the EC50 [1] was 23.9 µM (not active), the EC50 [2] was 12.4 µM (not active) and the IC50 (HEK293) was 18.4 µM (not active). The EC50 [3] was 5.4 µM (active), the EC50 [4] was 7.05 µM (active) and the IC50 [5] was 93.1 µM (active).
With CC1CCN(C(C(=O)Nc2ccc(C(C)C)cc2)c2ccc3c(c2)OCO3)CC1 (stereo not given) the IC50 (Staphylococcus aureus) was 0.717 µM (active).
In the case of COc1ccc(N2C(=O)NC(=O)/C(=C/c3ccc([N+](=O)[O-])s3)C2=O)cc1, the EC50 [6] is reported as > 300 µM (not active), the EC50 [7] is reported as 24.3 µM (active) and the IC50 (NS3) is reported as 9.42 µM (active). The CC50 [8] was 38.5 µM (active), the EC50 [9] was 8.55 µM (active) and the IC50 (cells) was 26.7 µM (active). The CC50 (Vero) was > 25 µM (active).
For Cc1ccc(NC(=O)C2CCN(C(=O)c3cccs3)CC2)c(C)c1, the IC50 [10] was > 100 µM (inactive), the IC50 [11] was 6.51 µM (active) and the IC50 [12] was 47.6 µM (active). For the same molecule, the IC50 [13] was 4.37 µM (active), the IC50 [14] was 4.95 µM (active) and the IC50 [15] was 6.56 µM (active).
